{
  "source": "patent US20240199640A1",
  "about": "“NEGATIVE ALLOSTERIC MODULATORS OF METABOTROPIC GLUTAMATE RECEPTOR 2” (priority 2021, published 2024)",
  "data": [
    {"biological_target": "T1, rat mGlu2 (Rattus norvegicus, UniProt P31421)", "T1 construct": "expressed in transfected cells; host or cells: HEK-293", "T1 sequence (P31421 19-872)": "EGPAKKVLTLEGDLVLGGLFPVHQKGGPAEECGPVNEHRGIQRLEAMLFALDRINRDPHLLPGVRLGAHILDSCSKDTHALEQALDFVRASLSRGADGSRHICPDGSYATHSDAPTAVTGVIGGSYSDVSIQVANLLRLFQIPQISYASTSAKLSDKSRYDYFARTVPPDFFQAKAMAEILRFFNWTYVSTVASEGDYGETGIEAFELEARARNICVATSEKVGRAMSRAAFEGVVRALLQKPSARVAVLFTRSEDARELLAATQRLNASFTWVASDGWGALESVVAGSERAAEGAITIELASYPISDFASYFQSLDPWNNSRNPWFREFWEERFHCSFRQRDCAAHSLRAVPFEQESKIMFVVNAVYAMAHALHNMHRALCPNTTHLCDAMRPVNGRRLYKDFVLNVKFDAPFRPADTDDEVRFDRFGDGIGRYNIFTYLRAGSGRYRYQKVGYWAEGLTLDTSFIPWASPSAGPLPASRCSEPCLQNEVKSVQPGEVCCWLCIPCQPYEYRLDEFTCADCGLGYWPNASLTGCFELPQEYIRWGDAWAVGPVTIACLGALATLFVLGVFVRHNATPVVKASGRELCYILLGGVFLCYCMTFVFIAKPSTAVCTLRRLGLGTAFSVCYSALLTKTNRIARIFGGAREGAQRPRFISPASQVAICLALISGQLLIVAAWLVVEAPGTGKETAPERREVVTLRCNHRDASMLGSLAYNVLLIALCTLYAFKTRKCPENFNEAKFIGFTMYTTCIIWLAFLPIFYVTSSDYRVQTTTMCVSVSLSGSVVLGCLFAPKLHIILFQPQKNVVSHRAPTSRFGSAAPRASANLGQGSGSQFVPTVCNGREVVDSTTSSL", "experiment": "mGlu GIRK cell-based thallium flux assay, rat mGlu2", "conditions": "rat mGlu2 GIRK IC50 (nM), HEK-293 cells co-expressing rat mGlu2 and GIRK; EC80 glutamate; Tl flux", "experimental": "The day before the assay, GIRK cells co-expressing human mGlu3, human or rat mGlu2, as described above, were plated in black-walled, clear-bottomed, amine-coated 384-well plates at a density of 15,000 cells/20 μL/well in the assay medium (glutamine-depleted basal DMEM supplemented with 10% dialyzed FBS, 20 mM HEPES, 1 mM sodium pyruvate). Cells were incubated at 37° C. in the presence of 5% CO2. […] Cells were washed with assay buffer using a microplate washer to remove the medium, resulting in 20 μL of buffer remaining in each well. Immediately, 20 μL of 2× Thallos dye solution was added to cells, and incubated for one hour at 25° C. During the cell dye loading incubation period, a 10-point concentration serial dilution of compound was created from a 10 mM DMSO compound stock by performing a 1:3 serial dilution in DMSO using the Bravo liquid handler. The 2× compound plate was generated by transferring 0.24 μL of the diluted compound in each well to a daughter plate using an Echo acoustic liquid handler.\nAfter dye-loading, cell plates were washed with assay buffer to remove excess extracellular dye using a microplate washer, resulting in 20 μL of buffer remaining in each well. After a ten-minute equilibration period, cell, compound and agonist plates were loaded into a Hamamatsu μCell kinetic imaging plate reader equipped with liquid handler to monitor fluorescence changes at 480 nm excitation and 540 nm emission settings. Briefly, after collection of baseline fluorescence, 20 μL of compound was added and incubated for two minutes and twenty seconds. This is immediately followed by adding 10 μL of glutamate-thallium buffer to the wells containing compound. The fluorescent signal was monitored an additional 2.5 minutes after the glutamate addition. Multiple reference wells containing no compound received either no glutamate (for a baseline reference), […] glutamate, or ECmax glutamate (for normalization to maximum response). Fluorescence was measured throughout the experiment at a frequency of 1 measurement per every 2 seconds before the glutamate addition and a frequency of 1 measurement per every 1 second after the glutamate addition. Each compound concentration series occurred one time in each plate, and replicates from two or three plates were used in each experimental run. Thallium solutions were handled and disposed of according to guidelines from the Vanderbilt University Chemical Safety department.\nData were normalized using a static ratio function (F/F0) by dividing every fluorescent measurement by the initial fluorescent value for the corresponding well. The increase in signal resulting from the glutamate/thallium addition of the second add was measured by determining the slope from 3 seconds to 13 seconds after the addition. The average of all baseline slopes (no compound, no glutamate) was determined and this value was subtracted from all other slope values. The average of all ECmax slopes was determined and this value was used to normalize the baseline-corrected slopes to a percent max value (% Emax). The % Emax values for each compound series were plotted versus the log of the concentration and fit to a 4-parameter logistical equation with no fixed parameters.\nPotency is reported as the IC50 resulting from the curve fit.", "units": {"IC50": "nM"}, "values": [
      {"smiles": "Cc1ncc(COc2cc3c(cc2-c2ccc(F)cc2)C(=O)NC3)s1", "note": "[Compound 26, 6-(4-fluorophenyl)-5-((2-methylthiazol-5-yl)methoxy)isoindolin-1-one]", "IC50": 92},
      {"smiles": "CC(Oc1cc2c(cc1-c1ccc(F)cc1)C(=O)NC2)c1ccncc1", "note": "(stereo not drawn) [Compound 27, 6-(4-fluorophenyl)-5-(1-(pyridin-4-yl)ethoxy)isoindolin-1-one]", "IC50": 321},
      {"smiles": "CC(Oc1cc2c(cc1-c1ccc(F)cc1F)C(=O)NC2)c1ccncc1", "note": "(stereo not drawn) [Compound 28, 6-(2,4-difluorophenyl)-5-(1-(pyridin-4-yl)ethoxy)isoindolin-1-one]", "IC50": 305},
      {"smiles": "Cc1csc(C(C)Oc2cc3c(cc2-c2ccc(F)cc2)C(=O)NC3)n1", "note": "(stereo not drawn) [Compound 29, 6-(4-fluorophenyl)-5-(1-(4-methylthiazol-2-yl)ethoxy)isoindolin-1-one]", "IC50": 1690},
      {"smiles": "[2H]C([2H])(Oc1cc2c(cc1-c1ccc(F)cc1)C(=O)NC2)c1cnn(C)c1", "note": "[Compound 30, 6-(4-fluorophenyl)-5-((1-methyl-1H-pyrazol-4-yl)methoxy-d2)isoindolin-1-one]", "IC50": 418},
      {"smiles": "O=C1NCc2cc(Oc3ccncc3)c(-c3ccc(F)cc3)cc21", "note": "[Compound 31, 6-(4-fluorophenyl)-5-(pyridin-4-yloxy)isoindolin-1-one]", "IC50": 1160},
      {"smiles": "O=C1NCc2cc(Oc3ccncc3)c(-c3ccc(F)cc3F)cc21", "note": "[Compound 32, 6-(2,4-difluorophenyl)-5-(pyridin-4-yloxy)isoindolin-1-one]", "IC50": 151},
      {"smiles": "O=C1NCc2cc(OC3CN(c4ccncc4)C3)c(-c3ccc(F)cc3)cc21", "note": "[Compound 33, 6-(4-fluorophenyl)-5-((1-(pyridin-4-yl)azetidin-3-yl)oxy)isoindolin-1-one]", "IC50": "> 10000"},
      {"smiles": "[2H]C1([2H])NC(=O)c2cc(-c3ccc(F)cc3)c(OC([2H])([2H])c3cnn(C)c3)cc21", "note": "[Compound 34, 6-(4-fluorophenyl)-5-((1-methyl-1H-pyrazol-4-yl)methoxy-d2)isoindolin-1-one-3,3-d2]", "IC50": 836},
      {"smiles": "CC(Oc1cc2c(cc1-c1ccc(-c3cccs3)cc1)C(=O)NC2)c1ccncc1", "note": "(stereo not drawn) [Compound 36, 5-(1-(pyridin-4-yl)ethoxy)-6-(4-(thiophen-2-yl)phenyl)isoindolin-1-one]", "IC50": "> 30000"},
      {"smiles": "CC(Oc1cc2c(cc1-c1ccc(OC(F)F)cc1F)C(=O)NC2)c1ccncc1", "note": "(stereo not drawn) [Compound 37, 6-(4-(difluoromethoxy)-2-fluorophenyl)-5-(1-(pyridin-4-yl)ethoxy)isoindolin-1-one]", "IC50": 781},
      {"smiles": "CC(Oc1cc2c(cc1-c1ccc(N3CCOCC3)cc1)C(=O)NC2)c1ccncc1", "note": "(stereo not drawn) [Compound 38, 6-(4-morpholinophenyl)-5-(1-(pyridin-4-yl)ethoxy)isoindolin-1-one]", "IC50": "> 10000"},
      {"smiles": "CC(Oc1cc2c(cc1-c1ccc(OC(F)(F)F)cc1)C(=O)NC2)c1ccncc1", "note": "(stereo not drawn) [Compound 39, 5-(1-(pyridin-4-yl)ethoxy)-6-(4-(trifluoromethoxy)phenyl)isoindolin-1-one]", "IC50": "> 10000"},
      {"smiles": "CC(Oc1cc2c(cc1-c1ccc(F)nc1)C(=O)NC2)c1ccncc1", "note": "(stereo not drawn) [Compound 40, 6-(6-fluoropyridin-3-yl)-5-(1-(pyridin-4-yl)ethoxy)isoindolin-1-one]", "IC50": "> 10000"},
      {"smiles": "Cn1ccc(COc2cc3c(cc2-c2cc(F)nc(F)c2)C(=O)NC3)n1", "note": "[Compound 41, 6-(2,6-difluoropyridin-4-yl)-5-((1-methyl-1H-pyrazol-3-yl)methoxy)isoindolin-1-one]", "IC50": "> 10000"},
      {"smiles": "Cn1ccc(COc2cc3c(cc2-c2ccc(OC(F)F)cc2F)C(=O)NC3)n1", "note": "[Compound 42, 6-(4-(difluoromethoxy)-2-fluorophenyl)-5-((1-methyl-1H-pyrazol-3-yl)methoxy)isoindolin-1-one]", "IC50": 393},
      {"smiles": "Cn1ccc(COc2cc3c(cc2-c2ccc(OC(F)(F)F)cc2)C(=O)NC3)n1", "note": "[Compound 43, 5-((1-methyl-1H-pyrazol-3-yl)methoxy)-6-(4-(trifluoromethoxy)phenyl)isoindolin-1-one]", "IC50": 2370},
      {"smiles": "Cn1ccc(COc2cc3c(cc2-c2ccc(F)nc2)C(=O)NC3)n1", "note": "[Compound 44, 6-(6-fluoropyridin-3-yl)-5-((1-methyl-1H-pyrazol-3-yl)methoxy)isoindolin-1-one]", "IC50": 1840}
    ]}
  ]
}
